In patent publication US8709482B2, “Stabilised prostaglandin composition” (Ferring B.V., priority 2005, dated 2014):

Key:
[1] = Stability study of misoprostol oil at 25° C. (HPLC content, physical form); type: physicochemical
Description: Misoprostol stability was tested over a period of 6 months. The misoprostol tested was the commercially available misoprostol in the form of an oil. Misoprostol was stored at a temperature of 25° C., and misoprostol content measured using HPLC at 0, 2, 4, 8 weeks and 3 and 6 months.

[2] = Comparative stability at 25° C. of dinoprostone bulk drug crystal and dinoprostone in polyurethane hydrogel; type: physicochemical
Source text: Measurements are taken at 0, 1, 2, 3, and 6 months. The following results are for comparative purposes only and are not intended to form part of the present invention.

Misoprostol content [1]; 0	Physical form [1]; 0	Misoprostol content ([1]; 2 w)	Physical form ([1]; 2 w)	Misoprostol content ([1]; 3 m)	Physical form ([1]; 3 m)	Misoprostol content ([1]; 4 w)	Physical form ([1]; 4 w)	Misoprostol content ([1]; 6 m)	Physical form ([1]; 6 m)	Misoprostol content ([1]; 8 w)	Physical form ([1]; 8 w)	Stability (FIG. 1) ([1]; in the absence of polyurethane hydrogel)	% potency ([2]; 0 months)	% potency ([2]; 1 month)	% potency ([2]; 3 months)	% potency ([2]; 6 months)	SMILES
101.59 % w/w	Colourless	99.61 % w/w	Colourless	93.63 % w/w	Straw	98.59 % w/w	Colourless	57.07 % w/w	Yellow	96.87 % w/w	Clear	degrades with time	–	–	–	–	CCCCC(C)(O)C/C=C/[C@H]1[C@H](O)CC(=O)[C@@H]1CCCCCCC(=O)OC (mixture of isomers) [Misoprostol, (11α,13E)-(±)-11,16-Dihydroxy-16-methyl-9-oxoprost-13-en-1-oic acid methyl ester]
–	–	–	–	–	–	–	–	–	–	–	–	–	100 % potency	96 % potency	89 % potency	75 % potency	CCCCC[C@H](O)/C=C/[C@H]1[C@H](O)CC(=O)[C@@H]1C/C=C\CCCC(=O)O [Dinoprostone]
